The values that follow come from article PMC4642525, “Conjugates of γ-Carbolines and Phenothiazine as new selective inhibitors of butyrylcholinesterase and blockers of NMDA receptors for Alzheimer Disease” (Scientific Reports, 2015).

Each structure is given as a SMILES string. Entries after “also recorded” stand apart in the source; their conditions may differ. Like-named read-outs stand apart in the source and are kept apart here. Where only a bound is given, the exact number is not on record here.

The target in experiment [1] is T1, МК-801 binding site of NMDA receptor (Rattus norvegicus, UniProt P35439).
T1 construct: A membrane preparation of hippocampus for radioligand analysis was prepared; from tissue; host or cells: rat hippocampal membranes
In words: Radioligand binding, [3H]MK-801 site of NMDA receptor, hippocampal membranes. The note with it: for % of [3H]МК-801 blockade at 100 μM of compound: 100 μM compound. On the procedure: (§1) Effect of test compounds on the radioligand binding to NMDA receptors was determined by using a modified method as reported earlier by Zhou L-M and coworkers. Two radioactive ligands were used: [^3H] MK-801 (dizocilpine) with a specific activity of 210 Ci/mmol binding to all isolated NMDA receptors, and [^3H] ifenprodil with a specific activity of 79 Ci/mmol binding only to NMDA receptors containing the NR2B subunit.
(§2) A membrane preparation of hippocampus for radioligand analysis was prepared by the techniques described previously. The obtained membrane pellet was resuspended in a work buffer (5 mM HEPES/4.5 mM Tris buffer, pH 7.6) in a ratio of 1:5, and stored in liquid nitrogen. The reaction mixture (the final volume of 0.5 ml) contained 200 μl of the working buffer, 50 μl of 50 nM radioligand solution and 250 μl of the membrane suspension. Nonspecific binding was determined in the presence of 50 μl of […] of unlabeled ligand.
(§3) For binding study, the reaction mixture was incubated at room temperature for 2 hours. After incubation, the samples were filtered through the glass-fiber filters GF/B (Whatman), washed with the work buffer, dried and transferred to scintillation vials to which 5 ml of scintillation fluid was added containing 4g diphenyl oxazole (PPO), 0.2g diphenyloxazoil benzene (POPOP) and 1 liter of toluene. Radioactivity was determined in the scintillation counter TriCarb2800 TR (PerkinElmer, Packard, USA) with counting efficiency of about 65%.
(§4) Investigation of the effect of the tested compounds on the binding of [^3H]

Experiment [2] addresses T2, carboxylesterase (CaE, EC 3.1.1.1, from porcine liver) (Sus scrofa, UniProt Q29550).
T2 sequence (Q29550 19-566): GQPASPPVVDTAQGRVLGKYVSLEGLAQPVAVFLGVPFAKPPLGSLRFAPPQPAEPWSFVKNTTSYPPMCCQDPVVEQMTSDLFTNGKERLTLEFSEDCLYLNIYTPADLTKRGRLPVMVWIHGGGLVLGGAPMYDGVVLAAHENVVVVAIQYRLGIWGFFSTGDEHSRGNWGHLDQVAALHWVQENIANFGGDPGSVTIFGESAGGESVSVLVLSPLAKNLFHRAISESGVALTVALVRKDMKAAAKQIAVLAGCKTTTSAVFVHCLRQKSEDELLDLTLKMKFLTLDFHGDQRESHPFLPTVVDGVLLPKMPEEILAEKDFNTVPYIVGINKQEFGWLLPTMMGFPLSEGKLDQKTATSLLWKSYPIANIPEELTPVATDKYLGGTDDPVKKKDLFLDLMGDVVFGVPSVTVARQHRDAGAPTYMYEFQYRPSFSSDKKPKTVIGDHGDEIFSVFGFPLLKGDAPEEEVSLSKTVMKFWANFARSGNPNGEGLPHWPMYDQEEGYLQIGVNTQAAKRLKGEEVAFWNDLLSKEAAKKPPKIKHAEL
In words: In vitro CaE inhibition (4-nitrophenyl acetate hydrolysis). The format is biochemical. The settings on record: pH 8.0, 25 °C, 10 min preincubation, read-out: IC50 (μM) ± SEM CaE. How it is done:
(§5) Acetylcholinesterase (AChE, EC 3.1.1.7, from human erythrocyte), butyrylcholinesterase (BChE, EC 3.1.1.8, from equine serum), carboxylesterase (CaE, EC 3.1.1.1, from porcine liver), acetylthiocholine iodide (ATCh), butylthiocholine iodide (BTCh), 5,5´-dithiobis-(2-nitrobenzoic acid) (DTNB), 4-nitrophenyl acetate (4-NPA), were purchased from Sigma-Aldrich (Germany).
The activity of CaE was determined spectrophotometrically by the release of 4-nitrophenol at 405 nm[51]. The assay solution consisted of 0.1 M K/Na phosphate buffer pH 8.0, 25 °C with the addition of 1 mM 4-nitrophenyl acetate and 0.02 unit/mL of CaE. Assays were carried out with a blank containing all components except CaE.
(§6) The tested compounds were dissolved in DMSO; the incubation mixture contained 2% of the solvent. […] The test compounds were added to the assay solution and preincubated at 25 °C with the enzymes for 10 min followed by the addition of substrate. A parallel control was made for the assay solution with no inhibitor. Measurements were performed in a BioRad Benchmark Plus microplate spectrophotometer (France). Each experiment was performed in triplicate. The results were expressed as the mean ± SEM. The reaction rates in the presence and absence of inhibitor were compared, and the percent of residual enzyme activity due to the presence of test compounds was calculated.

For experiment [3], the target named is T3, butyrylcholinesterase (BChE, EC 3.1.1.8, from equine serum) (Equus caballus, UniProt P81908).
T3 construct: butyrylcholinesterase (BChE, EC 3.1.1.8, from equine serum); purchased Sigma-Aldrich (Germany); host or cells: equine serum
In words: biochemical. In kind it is biochemical. How it is done:
as §5
(§7) AChE and BChE activities were measured by the method of Ellman and coworkers as described earlier. The assay solution consisted of 0.1 M K/Na phosphate buffer pH 7.5, 25 °C with the addition of 0.33 mM DTNB, 0.02 unit/mL of AChE or BChE and 1 mM of substrate (ATCh or BTCh, respectively). Assays were carried out with a blank containing all components except ATCh and BTCh in order to account for non-enzymatic reaction.
as §6

For experiment [4], the target named is T4, Acetylcholinesterase (AChE, EC 3.1.1.7, from human erythrocyte) (Homo sapiens, UniProt P22303).
T4 construct: Acetylcholinesterase (AChE, EC 3.1.1.7, from human erythrocyte); purchased Sigma-Aldrich (Germany); host or cells: human erythrocytes
In words: biochemical. In kind it is biochemical. On the procedure: as §5, §7, §6

Experiment [5] deals with T5, ifenprodil binding site of NMDA receptor (NR2B subunit containing) (Rattus norvegicus, UniProt P35439+Q00960).
T5 construct: A membrane preparation of hippocampus for radioligand analysis was prepared; from tissue; host or cells: rat hippocampal membranes
Nature of the experiment: Radioligand binding, [3H]ifenprodil site of NMDA receptor, hippocampal membranes. The note with it: for % of [3H]ifenprodil blockade at 100 μM of compound: 100 μM compound. On the procedure: as §1, §2, §3, §4

Experiment [6] deals with T3, butyrylcholinesterase (BChE, EC 3.1.1.8, from equine serum). Nature of the experiment: biochemical. The note with it: for αKi (non-competitive inhibition constant) / Ki: BChE, means ± SEM, at least three experiments; for Ki: read-out: Ki (competitive inhibition constant); for type of BChE inhibition: Lineweaver-Burk analysis. In kind it is biochemical. On the procedure:
The test compounds were preincubated with the enzymes at 25 °C for 10 min, followed by the addition of the substrates. Parallel controls were made for an assay of the rate of hydrolysis of the same concentrations of substrates in the solutions with no inhibitor. The kinetic parameters of substrate hydrolysis were determined. Measurements were performed in a BioRad Benchmark Plus microplate spectrophotometer (France). Each experiment was performed in triplicate.

The mark [7] stands for this setting: rat hippocampal membranes, read-out: [3H]МК-801, IC50.
The mark [8] stands for this setting: equine serum BChE, pH 7.5, 25 °C, 10 min preincubation, read-out: IC50 (μM) ± SEM BChE.
Where [9] appears, read: human erythrocyte AChE, pH 7.5, 25 °C, 10 min preincubation, read-out: IC50 (μM) ± SEM AChE.
Setting [10] is: rat hippocampal membranes, read-out: [3H]ifenprodil, IC50.

T5 sequence (Q00960 27-1482, other chains not shown): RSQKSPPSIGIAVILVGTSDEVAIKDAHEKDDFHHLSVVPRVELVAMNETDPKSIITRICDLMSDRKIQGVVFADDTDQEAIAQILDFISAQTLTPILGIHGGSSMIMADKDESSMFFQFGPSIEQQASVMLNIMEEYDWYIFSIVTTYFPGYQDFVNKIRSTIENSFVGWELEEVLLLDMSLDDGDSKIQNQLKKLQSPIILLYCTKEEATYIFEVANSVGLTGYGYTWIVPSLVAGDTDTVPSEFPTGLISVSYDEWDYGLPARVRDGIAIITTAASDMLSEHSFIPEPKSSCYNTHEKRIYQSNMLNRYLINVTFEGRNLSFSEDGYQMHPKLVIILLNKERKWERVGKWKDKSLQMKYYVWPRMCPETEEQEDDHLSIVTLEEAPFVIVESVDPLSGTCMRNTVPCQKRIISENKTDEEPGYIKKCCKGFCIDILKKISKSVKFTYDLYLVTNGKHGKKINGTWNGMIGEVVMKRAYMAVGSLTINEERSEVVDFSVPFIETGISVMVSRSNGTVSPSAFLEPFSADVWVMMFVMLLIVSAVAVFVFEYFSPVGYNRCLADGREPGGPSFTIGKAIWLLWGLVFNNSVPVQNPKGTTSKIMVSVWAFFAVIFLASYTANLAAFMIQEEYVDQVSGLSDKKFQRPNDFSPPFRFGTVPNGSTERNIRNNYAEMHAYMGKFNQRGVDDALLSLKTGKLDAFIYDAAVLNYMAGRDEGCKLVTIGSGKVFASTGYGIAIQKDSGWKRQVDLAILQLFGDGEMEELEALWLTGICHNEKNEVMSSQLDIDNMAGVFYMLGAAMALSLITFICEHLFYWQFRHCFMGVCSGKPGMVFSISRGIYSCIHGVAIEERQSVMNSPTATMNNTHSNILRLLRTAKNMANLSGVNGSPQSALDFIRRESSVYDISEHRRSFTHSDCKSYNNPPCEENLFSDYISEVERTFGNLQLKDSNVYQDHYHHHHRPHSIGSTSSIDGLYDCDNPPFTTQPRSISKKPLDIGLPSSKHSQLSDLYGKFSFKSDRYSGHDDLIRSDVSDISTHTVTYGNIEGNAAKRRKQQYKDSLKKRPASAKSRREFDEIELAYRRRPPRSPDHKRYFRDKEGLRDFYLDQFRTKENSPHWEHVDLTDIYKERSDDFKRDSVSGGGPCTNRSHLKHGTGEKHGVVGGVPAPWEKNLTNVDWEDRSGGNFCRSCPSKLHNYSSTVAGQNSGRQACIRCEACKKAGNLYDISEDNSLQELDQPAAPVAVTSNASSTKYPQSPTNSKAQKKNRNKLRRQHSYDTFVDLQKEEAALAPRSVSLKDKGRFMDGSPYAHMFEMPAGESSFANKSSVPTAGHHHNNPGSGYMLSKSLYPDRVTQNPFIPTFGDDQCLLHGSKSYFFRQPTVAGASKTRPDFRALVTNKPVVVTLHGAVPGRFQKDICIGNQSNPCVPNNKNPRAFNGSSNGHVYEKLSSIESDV
T3 sequence (P81908 whole entry): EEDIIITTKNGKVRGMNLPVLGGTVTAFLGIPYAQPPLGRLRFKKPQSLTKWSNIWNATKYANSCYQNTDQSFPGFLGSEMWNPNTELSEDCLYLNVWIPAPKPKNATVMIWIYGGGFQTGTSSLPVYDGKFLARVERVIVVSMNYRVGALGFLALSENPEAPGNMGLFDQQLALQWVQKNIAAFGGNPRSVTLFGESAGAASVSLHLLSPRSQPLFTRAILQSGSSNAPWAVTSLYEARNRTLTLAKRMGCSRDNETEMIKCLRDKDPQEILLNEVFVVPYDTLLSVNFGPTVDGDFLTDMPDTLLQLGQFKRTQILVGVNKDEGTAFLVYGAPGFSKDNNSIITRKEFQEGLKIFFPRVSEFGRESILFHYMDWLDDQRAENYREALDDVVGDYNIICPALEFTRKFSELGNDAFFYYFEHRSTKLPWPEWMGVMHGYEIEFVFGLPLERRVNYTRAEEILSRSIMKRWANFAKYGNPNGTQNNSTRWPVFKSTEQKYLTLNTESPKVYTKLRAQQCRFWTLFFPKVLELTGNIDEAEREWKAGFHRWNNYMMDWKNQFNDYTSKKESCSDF
T4 sequence (P22303 other isoform, or with tags, fused parts or gaps): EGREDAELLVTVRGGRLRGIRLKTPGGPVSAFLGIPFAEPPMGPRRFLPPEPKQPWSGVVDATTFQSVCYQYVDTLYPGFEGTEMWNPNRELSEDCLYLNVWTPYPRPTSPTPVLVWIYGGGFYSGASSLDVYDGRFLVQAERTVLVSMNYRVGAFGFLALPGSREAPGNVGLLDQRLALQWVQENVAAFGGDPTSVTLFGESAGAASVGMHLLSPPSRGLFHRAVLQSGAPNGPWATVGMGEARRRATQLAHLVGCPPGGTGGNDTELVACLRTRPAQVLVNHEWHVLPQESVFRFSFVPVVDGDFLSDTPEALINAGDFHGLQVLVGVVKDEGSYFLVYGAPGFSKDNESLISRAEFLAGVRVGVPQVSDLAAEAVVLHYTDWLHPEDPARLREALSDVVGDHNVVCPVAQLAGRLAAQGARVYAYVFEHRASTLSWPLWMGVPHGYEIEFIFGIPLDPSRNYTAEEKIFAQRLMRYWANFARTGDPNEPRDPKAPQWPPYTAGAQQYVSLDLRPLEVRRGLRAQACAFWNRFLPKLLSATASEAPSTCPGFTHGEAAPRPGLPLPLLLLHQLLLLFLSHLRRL

By IC50 is commonly meant the point on the concentration scale where inhibition reaches its midpoint. For `Cc1ccc2c(c1)c1c(n2CCC(=O)N2c3ccccc3Sc3ccccc32)CCN(C)C1` [C-1a], the “% of [3H]МК-801 blockade at 100 μM of compound” value (“% of [3H]МК-801 blockade” below) in experiment [1] (rat hippocampal membranes) was 80.4 ± 6.6%. The half-inhibitory concentration (IC50) is 13.5 ± 3.6 µM in experiment [1] (setting [7]); over 200 µM in experiment [2]; 62.6 ± 4.3 µM in experiment [3] (setting [8]); over 200 µM in experiment [4] (setting [9]); 88.4 ± 8.3 µM in experiment [5] (setting [10]). Moreover, in experiment [5] (rat hippocampal membranes), the “% of [3H]ifenprodil blockade at 100 μM of compound” value (“% of [3H]ifenprodil blockade” below) is recorded as 42.6 ± 7.2%.
With `Cc1ccc2c(c1)c1c(n2CCc2ccc(C)nc2)CCN(C)C1` [dimebon, reference compound], in experiment [1] (rat hippocampal membranes), the “% of [3H]МК-801 blockade” value is listed as 27.8 ± 3.9%. In addition, the IC50 in experiment [1] (setting [7]) is 91.5 ± 7.7 µM; in experiment [3], 5.76 ± 0.51 µM; in experiment [4], 36.3 ± 5.8 µM; in experiment [5] (setting [10]), 82.4 ± 4.1 µM. Besides, the “% of [3H]ifenprodil blockade” value in experiment [5] (rat hippocampal membranes) turned out to be 34.1 ± 4.9%.
As usually defined, the Ki is the equilibrium dissociation constant of an inhibitor or competing ligand from its target. As to `COc1ccc2c(c1)c1c(n2C[C@@H](O)CN2c3ccccc3Sc3ccccc32)CCN(C)C1` [C-2c], the “% of [3H]МК-801 blockade” value in experiment [1] (rat hippocampal membranes) worked out at 19.1 ± 2.2%. Moreover, the IC50 in experiment [1] (read-out: [3H]МК-801, IC50, rat hippocampal membranes) amounted to 113 ± 11.1 µM; in experiment [3] (setting [8]), 0.39 ± 0.02 µM; in experiment [5] (read-out: [3H]ifenprodil, IC50, rat hippocampal membranes), 115 ± 9.3 µM. The “αKi (non-competitive inhibition constant)” value in experiment [6] turned out to be 0.89 ± 0.18 µM. In experiment [6], the Ki was found to be 0.25 ± 0.04 µM. For the same compound, the “% of [3H]ifenprodil blockade” value in experiment [5] (rat hippocampal membranes) was determined as 47.4 ± 6.6%.
As for `CCN1CCc2c(c3cc(F)ccc3n2CCC(=O)N2c3ccccc3Sc3ccccc32)C1` [C-1f], the IC50 in experiment [1] was 15.8 ± 1.8 µM; in experiment [3] (setting [8]), 0.58 ± 0.06 µM; in experiment [4] (setting [9]), over 200 µM; in experiment [5], 8.8 ± 1.8 µM. The “% of [3H]МК-801 blockade” value in experiment [1] (rat hippocampal membranes) was 82.4 ± 7.3%. Moreover, the “αKi (non-competitive inhibition constant)” value in experiment [6] worked out at 0.52 ± 0.04 µM. Further, the inhibition constant Ki in experiment [6] stood at 0.17 ± 0.02 µM. Further, the “type of BChE inhibition” value in experiment [6] is given as “mixed-type inhibition; also recorded: mixed-type reversible inhibitors”. Further, in experiment [3] (comparison of IC50 values, 1-oxopropylene vs 2-hydroxypropylene spacer, same R1, R2), the “times higher BChE inhibitory activity versus (C-2b)” value came to 3.5 times. The “% of [3H]ifenprodil blockade” value in experiment [5] (rat hippocampal membranes) was 78.2 ± 6.8%.
Turning to `CCN1CCc2c(c3cc(F)ccc3n2CC(O)CN2c3ccccc3Sc3ccccc32)C1` (racemic) [C-2b], the “% of [3H]МК-801 blockade” value in experiment [1] (rat hippocampal membranes) stood at 24.1 ± 1.9%. The IC50 in experiment [1] (setting [7]) was 106 ± 9.2 µM; in experiment [2] it was over 200 µM; in experiment [3] (setting [8]), 2.01 ± 0.04 µM; in experiment [5] (setting [10]), 81.2 ± 6.7 µM. Moreover, the “αKi (non-competitive inhibition constant)” value in experiment [6] worked out at 2.98 ± 0.19 µM. The Ki in experiment [6] turned out to be 0.82 ± 0.02 µM. Also, in experiment [6], the “type of BChE inhibition” value is on record as “mixed-type inhibition; also recorded: mixed-type reversible inhibitors”. Besides, the “% of [3H]ifenprodil blockade” value in experiment [5] (rat hippocampal membranes) turned out to be 25.7 ± 4.6%.
Turning to `CN1CCc2c(c3cc(F)ccc3n2CCC(=O)N2c3ccccc3Sc3ccccc32)C1` [C-1c], the “% of [3H]МК-801 blockade” value in experiment [1] (rat hippocampal membranes) was 78.7 ± 1.4%. Moreover, the IC50 in experiment [1] (setting [7]) was 17.7 ± 2.6 µM; in experiment [2], over 200 µM; in experiment [3] (setting [8]) it was 1.79 ± 0.28 µM; in experiment [4] (setting [9]), over 200 µM; in experiment [5] (setting [10]), 55.1 ± 5.8 µM. Also, in experiment [6], the “αKi (non-competitive inhibition constant)” value came out at 1.27 ± 0.41 µM. Also, the Ki in experiment [6] was 0.48 ± 0.06 µM. Further, the “% of [3H]ifenprodil blockade” value in experiment [5] (rat hippocampal membranes) is 50.2 ± 5.2%.
For `CN(C)c1ccc2nc3ccc(=[N+](C)C)cc-3sc2c1` [MB, methylene blue, reference compound], the “% of [3H]МК-801 blockade” value in experiment [1] (rat hippocampal membranes) was determined as 2.0 ± 4.0%. Also, in experiment [6], the “αKi (non-competitive inhibition constant)” value worked out at 0.64 ± 0.02 µM.
In the case of `Cc1ccc2c(c1)c1c(n2CC(O)CN2c3ccccc3Sc3ccccc32)CCN(C)C1` (racemic) [C-2a], the IC50 is 84.8 ± 9.2 µM in experiment [1] (setting [7]), over 200 µM in experiment [2], 11.7 ± 0.4 µM in experiment [3] (setting [8]) and 57.2 ± 6.7 µM in experiment [5] (setting [10]). Besides, the “% of [3H]ifenprodil blockade” value in experiment [5] (rat hippocampal membranes) turned out to be 69.7 ± 8.3%.
In experiment [3], `c1ccc2c(c1)Nc1ccccc1S2` [phenothiazine] displayed an IC50 of 137 ± 31 µM.
As to `O=[N+]([O-])c1ccc(OP(=O)(O)Oc2ccc([N+](=O)[O-])cc2)cc1` [BNPP, Bis-4-nitrophenyl phosphate, reference compound], the half-inhibitory concentration (IC50) in experiment [2] amounted to 1.8 ± 0.11 µM.
